Data on 13 molecules can be found in patent US9096615B2, “Bridged bicyclic amino thiazine dioxide compounds as inhibitors of beta-secretase and methods of use thereof” (AMGEN INC., priority 2013, dated 2015).

Where two headings read alike, the source gives them in different places. Bounds are passed on as bounds.

One test deals with BACE1 (Homo sapiens, UniProt P56817). The experiment in a line: In vitro enzymatic BACE FRET assay. It counts as biochemical. In a few lines: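 Fluorescence (excitation 488 nm, […]) from cleavage of quenched peptide substrate (50 nM), reaction run 1 h after 1 h enzyme–inhibitor pre-incubation, then neutralised with Tris. Conditions: 0.2 nM enzyme, pH 4.2 acetate 0.05 M, 10% DMSO final, 100 uM genapol.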
Chain of BACE1 (P56817 46-501, species assumed): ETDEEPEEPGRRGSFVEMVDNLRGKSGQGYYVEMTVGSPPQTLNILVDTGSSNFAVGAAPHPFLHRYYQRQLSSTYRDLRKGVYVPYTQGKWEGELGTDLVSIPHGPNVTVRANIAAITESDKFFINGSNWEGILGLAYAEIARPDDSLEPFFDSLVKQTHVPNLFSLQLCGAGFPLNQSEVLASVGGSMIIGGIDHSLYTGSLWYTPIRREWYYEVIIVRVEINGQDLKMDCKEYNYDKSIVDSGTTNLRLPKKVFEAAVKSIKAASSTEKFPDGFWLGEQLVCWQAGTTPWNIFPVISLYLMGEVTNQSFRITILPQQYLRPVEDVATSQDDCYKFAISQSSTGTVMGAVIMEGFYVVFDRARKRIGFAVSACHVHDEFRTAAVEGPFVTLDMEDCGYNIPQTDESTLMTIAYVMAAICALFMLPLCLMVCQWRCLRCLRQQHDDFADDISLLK

Test [1] relates to Aβ40 in conditioned medium of cells stably expressing Amyloid Precursor Protein (APP). The experiment in a line: In vitro BACE cell-based assay (HEK cell assay, Aβ40 sandwich ELISA). As to conditions: Homo sapiens, HEK293. In a few lines: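 IC50 was derived from percent-of-control Aβ40 against concentration, with Aβ40 quantified by time-resolved fluorescence ELISA (pAb40/6E10-biotin, 4 °C incubations). Supernatants were sampled after 24 h of compound exposure (10 points, starting 100 or 10 μM, 0.1% DMSO) of cells stably expressing APP.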

The next test concerns the target T1, Cathepsin D (Cat D) (Homo sapiens, UniProt P07339).
T1 construct: made in house; host or cells: CHO cells
The experiment in a line: In vitro enzymatic Cathepsin D (Cat D) FRET assay. The format is biochemical. As to conditions: read-out: CatD IC50. In a few lines:
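Fluorescence (500 nm excitation, 580 nm emission) was measured after Tris quench of a 1 h cleavage of 20 nM quenched peptide substrate. Before that, 9 nM CHO-expressed human Cat D sat with compound for 1 h at pH 3.5 (0.05 M citrate, 5 mM CHAPS, 10% DMSO final).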

A further test has as its system Abeta 40. In words: In vivo inhibition of beta-secretase: percent Abeta 40 reduction in CSF and brain. Also noted: species or system rat. To be noted: 10 mpk, after 4 hrs. An excerpt: In Vivo Inhibition of Beta-Secretase
Several animal models, including mouse, rat, dog, and monkey, may be used to screen for inhibition of beta-secretase activity in vivo following administration of a test compound sample. Animals used in this invention can be wild type, transgenic, or gene knockout animals. For example, the Tg2576 mouse model, prepared and conducted as described in Hsiao et al., 1996, Science 274, 99-102, and other non-transgenic or gene knockout animals are useful to analyze in vivo inhibition of Amyloid beta peptide (Abeta) production in the presence of inhibitory test compounds. Generally, 2 to 18 month old Tg2576 mice, gene knockout mice or non-transgenic animals are administered test compounds formulated in vehicles, such as cyclodextran, phosphate buffers, hydroxypropyl methylcellulose or other suitable vehicles. One to twenty-four hours following the administration of compound, animals are sacrificed, and brains as well as cerebrospinal fluid (CSF) and plasma are removed for analysis of A-beta levels and drug or test compound concentrations (Dovey et al., 2001, Journal of Neurochemistry, 76, 173-181) Beginning at time 0, animals are administered by oral gavage, or other means of delivery such as intravenous injection, an inhibitory test compound of up to 100 mg/kg in a standard, conventional formulation, such as 2% hydroxypropyl methylcellulose, 1% Tween80. A separate group of animals receive 2% hydroxypropyl methylcellulose, 1% Tween80 alone, containing no test compound, and serve as a vehicle-control group. At the end of the test period, animals are sacrificed and brain tissues, plasma or cerebrospinal fluid are collected. Brains are either homogenized in 10 volumes (w/v) of 0.2% diethylamine (DEA) in 50 mM NaCl (Best et al., 2005, Journal of Pharmacology and Experimental Therapeutics, 313, 902-908), or in 10 volumes of 0.5% TritonX-100 in Tris-buffered saline (pH at about 7.6). Homogenates are centrifuged at 355,000 g, 4° C. for 30 minutes. CSF or brain supernatants are then analyzed for the presence of A-beta peptide by specific sandwich ELISA assays based on ECL (Electrochemiluminescence) technology. For example, rat Abeta40 is measured using biotinylated-4G8 (Signet) as a capture antibody and Fab40 (an in-house antibody specific to the C-terminal of Abeta40) as a detection antibody. For example, 4 hours after administration of 30 mg/kg oral dose of the test compound in 2% hydroxypropyl methylcellulose, 1% Tween80 (pH2.2) to 200 g male Sprague Dawley rats, amyloid beta peptide levels are measured for reduction by X % and Y % in cerebrospinal fluid and brain, respectively, when compared to the levels measured in the vehicle-treated or control […].
Actual vehicles used: Oral: 2% HPMC, 1% Tween80, pH 2.2
• IV: 5% EtOH, 45% Propylene glycol in 5% Dextrose
The compounds of the invention may be shown to reduce the formation and/or deposition of amyloid beta peptide in the cerebrospinal fluid (CSF) as well as in the brain of a mouse or rat at either 3 mpk, 10 mpk or 30 mpk (mpk=mg compound per kg weight of the animal) dosing concentrations after 4 hrs.

Setting [2] is: read-out: BACE1 FRET assay IC50.
[3] abbreviates: Aβ40, 24 h incubation, read-out: HEK cell assay IC50.
[4] abbreviates: Abeta 40, rat CSF, read-out: % reduction of rat CSF levels at 10 pmk.
[5] abbreviates: Abeta 40, rat brain, read-out: % reduction of rat brain levels at 10 mpk.
The mark [6] stands for this setting: average IC50, read-out: BACE1 Enzyme assay IC50.
The mark [7] stands for this setting: average IC50, read-out: BACE1 cell assay IC50.

T1 sequence (P07339 65-412, species assumed): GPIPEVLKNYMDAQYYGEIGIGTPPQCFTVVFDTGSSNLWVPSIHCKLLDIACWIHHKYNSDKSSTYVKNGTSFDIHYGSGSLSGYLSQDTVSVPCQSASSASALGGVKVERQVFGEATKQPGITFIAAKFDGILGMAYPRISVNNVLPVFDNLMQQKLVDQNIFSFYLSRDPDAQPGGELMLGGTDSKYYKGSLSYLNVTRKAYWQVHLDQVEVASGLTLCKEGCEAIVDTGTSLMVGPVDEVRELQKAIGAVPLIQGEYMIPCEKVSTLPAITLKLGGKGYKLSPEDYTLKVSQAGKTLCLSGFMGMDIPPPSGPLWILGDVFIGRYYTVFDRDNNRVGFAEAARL

The term IC50 denotes the concentration needed to halve the response being measured. Consider `C[C@]1(c2cc(N)ccc2F)N=C(N)[C@@]2(C)CC[C@@H]1S2(=O)=O` [Example 35, (1R,4R,5S)-4-(5-amino-2-fluorophenyl)-1,4-dimethyl-8-thia-3-azabicyclo[3.2.1]oct-2-en-2-amine 8,8-dioxide], for which the values for the IC50 (on BACE1 (setting [2]); in test [1] (setting [3]); on Cathepsin D (Cat D)) were 10100 nM, 5810 nM and 287 µM, respectively. The inhibition in vivo at 10 mg/kg in the test with Abeta 40 (setting [4]) was determined as 52%; with Abeta 40 (setting [5]), 46%.
The corresponding values for `Cc1cc(C(F)(F)F)cnc1C(=O)Nc1ccc(F)c([C@@]2(C)N=C(N)[C@@]3(C)CC[C@@H]2S3(=O)=O)c1` [Example 24, N-(3-((1S,2R,5R)-4-Amino-2,5-dimethyl-8,8-dioxido-8-thia-3-azabicyclo[3.2.1]oct-3-en-2-yl)-4-fluorophenyl)-3-methyl-5-(trifluoromethyl)picolinamide] are 5 nM, 1 nM, 591 µM, 72% and 62%.
Turning to `C[C@]1(c2cc(NC(=O)c3cnc(C(F)F)cn3)ccc2F)N=C(N)[C@@]2(CF)CC[C@@H]1S2(=O)=O` [Example 109, N-(3-((1S,2R,5R)-4-amino-5-(fluoromethyl)-2-methyl-8,8-dioxido-8-thia-3-azabicyclo[3.2.1]oct-3-en-2-yl)-4-fluorophenyl)-5-(difluoromethyl)-2-pyrazinecarboxamide], the IC50 is 17 nM at BACE1 (setting [6]); 7 nM in test [1] (setting [7]); 1040 µM on Cathepsin D (Cat D) (average IC50, first procedure). Moreover, the values for the inhibition in vivo at 10 mg/kg in the test with Abeta 40 (setting [4]) and with Abeta 40 (setting [5]) were 70% and 57%, respectively.
On to `C[C@]1(c2cc(NC(=O)c3ccc(C(F)(F)F)cn3)ccc2F)N=C(N)[C@@]2(CF)CC[C@@H]1S2(=O)=O` [Example 110, N-(3-((1S,2R,5R)-4-amino-5-(fluoromethyl)-2-methyl-8,8-dioxido-8-thia-3-azabicyclo[3.2.1]oct-3-en-2-yl)-4-fluorophenyl)-5-(trifluoromethyl)-2-pyridinecarboxamide], for which the IC50 is 6 nM on BACE1 (setting [6]); 5 nM in test [1] (setting [7]); 536 µM on Cathepsin D (Cat D) (average IC50, first procedure). In addition, the inhibition in vivo at 10 mg/kg came to 65% in the test with Abeta 40 (setting [4]) and 54% in the test with Abeta 40 (setting [5]).
Turning to `Cc1cc(Cl)cnc1C(=O)Nc1ccc(F)c([C@@]2(C)N=C(N)[C@@]3(C)CC[C@@H]2S3(=O)=O)c1` [Example 22, N-(3-((1S,2R,5R)-4-Amino-2,5-dimethyl-8,8-dioxido-8-thia-3-azabicyclo[3.2.1]oct-3-en-2-yl)-4-fluorophenyl)-5-chloro-3-methylpicolinamide], the figures for the IC50 (on BACE1 (setting [2]); in test [1] (setting [3]); on Cathepsin D (Cat D)) were 2 nM, 2 nM and 1740 µM, respectively. Also, the values for the inhibition in vivo at 10 mg/kg with Abeta 40 (setting [4]) and with Abeta 40 (setting [5]) were 76% and 66%, respectively.
For the molecule `C[C@]1(c2cc(Nc3ncnc4cc(Cl)cnc34)ccc2F)N=C(N)[C@@]2(CF)CC[C@@H]1S2(=O)=O` [Example 98, N-(3-((1S,2R,5R)-4-amino-5-(fluoromethyl)-2-methyl-8,8-dioxido-8-thia-3-azabicyclo[3.2.1]oct-3-en-2-yl)-4-fluorophenyl)-7-chloropyrido[3,2-d]pyrimidin-4-amine], the IC50 on BACE1 (setting [6]) was 5 nM; in test [1] (setting [7]) it was 15 nM; at Cathepsin D (Cat D) (average IC50, first procedure), 286 µM. Moreover, the inhibition in vivo at 10 mg/kg in the test on Abeta 40 (setting [4]) was 70%; with Abeta 40 (setting [5]), 74%.
With `CC#Cc1ccc(C(=O)Nc2ccc(F)c([C@@]3(C)N=C(N)[C@@]4(C)CC[C@@H]3S4(=O)=O)c2)nc1` [Example 69, N-(3-((1S,2R,5R)-4-amino-2,5-dimethyl-8,8-dioxido-8-thia-3-azabicyclo[3.2.1]oct-3-en-2-yl)-4-fluorophenyl)-5-(1-propyn-1-yl)-2-pyridinecarboxamide], the IC50 is 2 nM on BACE1 (setting [6]); 3 nM in test [1] (setting [7]); greater than 400 µM at Cathepsin D (Cat D) (average IC50, first procedure). Further, the values for the inhibition in vivo at 10 mg/kg with Abeta 40 (setting [4]) and in the test with Abeta 40 (setting [5]) were 42% and 9%, respectively.
`COc1cnc(C(=O)Nc2ccc(F)c([C@@]3(C)N=C(N)[C@@]4(C)CC[C@@H]3S4(=O)=O)c2)c(C)n1` [Example 79, N-(3-((1S,2R,5R)-4-amino-2,5-dimethyl-8,8-dioxido-8-thia-3-azabicyclo[3.2.1]oct-3-en-2-yl)-4-fluorophenyl)-5-methoxy-3-methyl-2-pyrazinecarboxamide]: the IC50 on BACE1 (setting [6]) was 9 nM; in test [1] (setting [7]), 3 nM; on Cathepsin D (Cat D) (average IC50, first procedure), 1830 µM. The inhibition in vivo at 10 mg/kg stood at 71% in the test with Abeta 40 (setting [4]) and 62% in the test with Abeta 40 (setting [5]).
Consider `C[C@]1(c2cc(Nc3nccc4nc(OCC5CC5)cnc34)ccc2F)N=C(N)[C@@]2(C)CC[C@@H]1S2(=O)=O` [Example 68, N-(3-((1S,2R,5R)-4-amino-2,5-dimethyl-8,8-dioxido-8-thia-3-azabicyclo[3.2.1]oct-3-en-2-yl)-4-fluorophenyl)-2-(cyclopropylmethoxy)pyrido[3,4-b]pyrazin-5-amine], for which the IC50 was 5 nM at BACE1 (setting [6]); 33 nM in test [1] (setting [7]); greater than 400 µM on Cathepsin D (Cat D) (average IC50, first procedure).
As for `Cc1cc(Cl)cnc1C(=O)Nc1ccc(F)c([C@@]2(C)N=C(N)[C@H]3CC[C@@H]2S3(=O)=O)c1` [Example 33, N-(3-((1S,2R,5R)-4-amino-2-methyl-8,8-dioxido-8-thia-3-azabicyclo[3.2.1]oct-3-en-2-yl)-4-fluorophenyl)-5-chloro-3-methyl-2-pyridinecarboxamide], the figures for the IC50 (on BACE1 (setting [2]); in test [1] (setting [3]); at Cathepsin D (Cat D)) were 8460 nM, greater than 15600 nM and 1540 µM, respectively.
As for `Cc1cc(Cl)cnc1C(=O)Nc1ccc(F)c([C@]2(C)N=C(N)[C@]3(C)CC[C@H]2S3(=O)=O)c1` [Example 34, N-(3-((1R,2S,5S)-4-amino-2,5-dimethyl-8,8-dioxido-8-thia-3-azabicyclo[3.2.1]oct-3-en-2-yl)-4-fluorophenyl)-5-chloro-3-methyl-2-pyridinecarboxamide], the IC50 on BACE1 (setting [2]) turned out to be 4540 nM; in test [1] (setting [3]), 2030 nM; on Cathepsin D (Cat D) it was 4310 µM.
In the case of `COc1cnc(C(=O)Nc2ccc(F)c([C@@]3(C)N=C(N)[C@]4(C)CC[C@H]3S4(=O)=O)c2)cn1` [Example 66, N-(3-((1R,2R,5S)-4-amino-2,5-dimethyl-8,8-dioxido-8-thia-3-azabicyclo[3.2.1]oct-3-en-2-yl)-4-fluorophenyl)-5-methoxy-2-pyrazinecarboxamide], the IC50 is 70 nM on BACE1 (setting [6]); 18 nM in test [1] (setting [7]); greater than 400 µM on Cathepsin D (Cat D) (average IC50, first procedure).
On to `C[C@]1(c2cc(NC(=O)c3ccc(C(F)(F)F)cc3F)ccc2F)N=C(N)[C@@]2(C)CC[C@@H]1S2(=O)=O` [Example 121, N-(3-((1S,2R,5R)-4-amino-2,5-dimethyl-8,8-dioxido-8-thia-3-azabicyclo[3.2.1]oct-3-en-2-yl)-4-fluorophenyl)-2-fluoro-4-(trifluoromethyl)benzamide], for which the half-inhibitory concentration (IC50) is 410 nM on BACE1 (setting [6]); 150 nM in test [1] (setting [7]); greater than 400 µM at Cathepsin D (Cat D) (average IC50, first procedure).
